Laboratory results from patent US8821568B2, “Implant modified with non-hydroxylated vitamin D precursors” (Numat Biomedical S.L., priority 2008, dated 2014).

What was measured:
Type in all cases: cell-based, mouse
MC3T3-E1 cells [1] = assay: ELISA of 25-D3 and 1,25-D3 released to the culture media, plastic wells; conditions: TCP, 48 hours, 2×10^−3 to 20 nmols
Protocol: To test the effect of the different treatments onto the plastic wells, 96-well plates made of polystyrene were used and the treatments with 7-DHC performed directly onto them. Cells grown onto untreated TCP were added as a control for all the experiments. Cells were seeded at a density of 30,000 cells/cm^2 and they were maintained in α-MEM supplemented with 10% FCS and antibiotics. Culture media was collected after 48 hours, to test cytotoxicity and the production of the hydroxylated forms of vitamin D. Cells were harvested after 2 days of culture using Trizol reagent (Roche Diagnostics, Mannheim, Germany), to analyse early gene expression response of several osteoblast differentiation markers and enzymes involved in vitamin D synthesis using real-time RT-PCR.
25-D3 and 1,25-D3 released to the culture media after two days of treatment were analyzed by enzyme-linked immunosorbent assay (ELISA). Aliquots from the culture media were centrifuged at 1800 rpm for 5 minutes at 4° C. and supernatants were used for 25-D3 and 1,25-D3 determination following instructions described by the manufacturer (Immunodiagnostic Systems Ltd, Boldon, Tyne and Wear, UK).

MC3T3-E1 cells [2] = assay: Real-time RT-PCR of hydroxylase enzymes (CYP27A1, CYP27B1), coated titanium implants; conditions: Ti implants, 48 h
Protocol: (§1) To test the effect of the surface modification, 96-well plates were used. Ti disks were placed into the wells and treatments and UV-activation were performed over there. Cells grown onto untreated polystyrene tissue culture plastic (TCP) were added as a control for all the experiments. Cells were seeded at a density of 30,000 cells/cm^2 and they were maintained in α-MEM supplemented with 10% FCS and antibiotics. Culture media was collected after 48 hours, to test cytotoxicity and the production of the hydroxylated form of vitamin D, 25-D3. […]
RNA was isolated from cells using a monophasic solution of phenol and guanidine thiocyanate (Trizol, Roche Diagnostics, Mannheim, Germany) according to the manufacturer's protocol. RNA was quantified at 260 nm using a Nanodrop spectrophotometer (NanoDrop Technologies, Wilmington, Del., USA). […]
To allow relative quantification after PCR, real-time efficiencies were calculated from the given slopes in the LightCycler 480 software (Roche Diagnostics, Mannheim, Germany) using serial dilutions. Relative quantification after PCR was calculated by normalizing target gene concentration in each sample by the concentration mean of the two reference genes in given sample using the Advanced relative quantification method provided by the LightCycler 480 analysis software.

MC3T3-E1 cells [3] = assay: Calcium content (mineralization, ICP-AES) on coated titanium implants; conditions: Ti implants; 28 days; UV-treated compared to UV-untreated cells and control group
Protocol: as §1, with “25-D3. Cells were harvested after two days of culture using Trizol reagent (Roche Diagnostics, Mannheim, Germany), to analyze gene expression of several osteoblast differentiation markers and enzymes involved in vitamin D synthesis using real-time RT-PCR.” for “25-D3.”
[…] Cell lysates were put into freeze/thaw cycles (liquid nitrogen and 37° C. water bath) to improve protein recovery. […] ALP activity was calculated by measuring the cleavage of p-Nitrophenyl Phosphate (pNPP) (Sigma, St. Louis, Mo., USA) in a soluble yellow end product which absorbs at 405 nm. […] At this point, absorbance was read at 405 nm.
To determine calcium content samples were analyzed by inductively coupled plasma atomic emission spectrometry (Optima 5300 DV, PerkinElmer, Massachussetts, USA). […]

Compound: CC(C)CCC[C@@H](C)[C@H]1CC[C@H]2C3=CC=C4C[C@@H](O)CC[C@]4(C)[C@H]3CC[C@]12C [7-DHC, 7-dehydrocholesterol]
- Production of 25-D3 and 1,25-D3 (dose-response) (MC3T3-E1 cells [1]; activated by UV irradiation): a dose-response was found
- Production of 25-D3 and 1,25-D3 (dose-response) (MC3T3-E1 cells [1]; not UV-treated): no dose-response was detected
- CYP27B1 gene expression (MC3T3-E1 cells [2]; increasing UV exposure time, significant vs UV-untreated at 15 and 30 min): upregulated
- CYP27A1 mRNA gene expression (MC3T3-E1 cells [2]; with UV irradiation time, maximum after 15 min): trend to increase
- Calcium content (MC3T3-E1 cells [3]): significant increase
